# Reference: patent publication US6358967B1, “Ergoline amine derivatives with blood pressure lowering effect” (priority 1998, dated 2002)
# Key:
# [1] = system: normotensive Wistar rats after pretreatment with Ecolid; assay: Blood pressure testing after blockade of autonomic nerve tracts with Ecolid; type: in vivo, rat; details: Table 2; for Effect pressure/duration: duration: assessment class of duration; for Effect pressure/duration: duration / Effect pressure/duration: pressure: after Ecolid; for Effect pressure/duration: duration / Effect pressure/duration: pressure / Heart rate / Duration: 0.5 mg/kg i.v.; for Effect pressure/duration: pressure: assessment class of pressure fall; for Heart rate: change shown as arrow; for Heart rate / Duration: rats pretreated with Ecolid; for Diastol. pressure / Mean pressure / Systol. pressure: effect (fall) on arterial blood pressure, Wistar rats pretreated with Ecolid 0.5 mg/kg i.v., test substance 0.5 mg/kg i.v.
# Text: Ecolid is a ganglionic blocker which competitively blocks the postsynaptic cholinergic (nicotinergic) receptors in the autonomic ganglia. This interrupts neurotransmission in the ganglia in both the para-sympathetic and sympathetic regions of the autonomic nervous system. The consequence thereof is, inter alia, a fall in blood pressure. It is possible in this way to differentiate central and peripheral (i.e. direct points of action on the smooth muscles) effects.
# The experimental animals used were male Wistar rats with a BW of 300-450 g. The rats are anesthetized immediately before the experiment with 70 mg/kg inactin i.v. PE tubes are tied into the carotid artery and femoral vein.
# (§1) To maintain the blood pressure and to prevent formation of thrombi in the PE tubes of the blood vessels, each hour 2.5 ml of heparinized 0.9% strength NaCl solution are infused through the femoral vein and 1.2 ml through the carotid artery.
# Before testing the ergoline derivatives, the experimental animals were treated with Ecolid (dose: 0.5 mg/kg, i.v.).
# (§2) The ergoline derivatives are administered i.v. through the femoral vein as 5 percent EtOH/NaCl (0.9%) solution, 1 ml/kg in a dosage of 0.5 mg/kg test substance.
# The time stated in the table corresponds to the period between administration of Ecolid and injection of the test substances.
# [2] = system: normotensive Wistar rats; assay: Invasive blood pressure measurement in anesthetized rats, i.v. administration; type: in vivo, rat; details: 0.5 mg/kg i.v., Table 1.1; for Effect pressure/duration: duration: assessment class of duration; for Effect pressure/duration: pressure: assessment class of pressure fall; for Heart rate: change shown as arrow; for Heart rate / Duration: Wistar rats; for Duration: duration of blood pressure effect; for Diastol. pressure / Mean pressure / Systol. pressure: effect (fall) on arterial blood pressure, anesthetized Wistar rats
# Description: Male Wistar rats with a body weight (BW) of 300-450 g were used as experimental animals. The rats are anesthetized immediately before the experiment with 50 mg/kg pentobarbital Na intraperitoneally (i.p.) or 70 mg/kg inactin i.v. PE tubes are tied into the carotid artery and femoral vein.
# as §1
# The arterial blood pressure is measured invasively using a PONEMAH hemodynamic analyzer (HSE, March, Germany). Via the tube in the carotid artery, the arterial blood pressure is mechanoelectrically converted in a Statham transducer (ISOTEC), amplified in a Plugsys (DBA module, type 660), digitized in an A/D converter and input into the PC memory over defined time intervals. The values in the memory are then treated with an adapted algorithm in order to establish the blood pressure parameters to be calculated for heart rate, systolic, diastolic and mean blood pressure.
# as §2
SMILES,Effect pressure/duration: duration [1],Effect pressure/duration: pressure [1],Heart rate [1],Diastol. pressure [1],Mean pressure [1],Systol. pressure [1],Duration [1],Effect pressure/duration: duration [2],Effect pressure/duration: pressure [2],Heart rate [2],Duration [2],Diastol. pressure [2],Mean pressure [2],Systol. pressure [2]
"CN1C[C@H](CN2CCC(=O)NC2=O)C[C@@H]2c3cccc4[nH]cc(c34)C[C@H]21 [Dihydro-1-[[6-methyl-ergolin-8b-yl]-methyl]2,4-(1H, 3H)-pyrimidinedione, reference compound]",→/→ (no effect to 5%),→/→ (no effect to 5%),→,0%,0%,0%,0 min,↓ (up to 10 min),↓↓↓ (>30%),→,ca 10 min,75.9%,72.3%,70.9%
CN1CC(CNC(=O)C2CCC(C(=O)NCc3cccc(CN)c3)CC2)CC2c3cccc4[nH]cc(c34)CC21.O=C(O)C(F)(F)F.O=C(O)C(F)(F)F (mixture of isomers) [Substance 9703131],↓↓↓/↓↓↓ (> 30 min),↓↓↓/↓↓↓ (> 30%),→,40.4%,32.4%,32.9%,>60 min,↓↓↓/↓↓↓ (>30 min),↓↓↓/↓↓↓ (>30%),→,>240 min,55.2%,51.6%,47.5%
